In series [1] the target is T1, MMP-1 (Homo sapiens, UniProt P03956).
T1 sequence (P03956 100-469): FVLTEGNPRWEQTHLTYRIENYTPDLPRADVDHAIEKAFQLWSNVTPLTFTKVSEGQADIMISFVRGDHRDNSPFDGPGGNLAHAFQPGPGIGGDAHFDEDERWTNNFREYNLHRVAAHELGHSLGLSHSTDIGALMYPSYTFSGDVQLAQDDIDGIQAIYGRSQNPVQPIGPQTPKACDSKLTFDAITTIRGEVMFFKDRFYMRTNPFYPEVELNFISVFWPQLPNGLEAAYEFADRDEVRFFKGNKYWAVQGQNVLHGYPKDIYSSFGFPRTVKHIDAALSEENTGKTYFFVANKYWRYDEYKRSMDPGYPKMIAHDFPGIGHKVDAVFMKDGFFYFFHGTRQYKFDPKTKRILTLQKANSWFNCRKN
As to conditions: read-out: MMP-1 IC50.

Series [2] has as its target T2, MMP-13 (Homo sapiens, UniProt P45452). Briefly: In vivo MMP inhibition test procedure (implanted dialysis tubing containing enzyme). Further details: species or system rat or mouse. As to conditions: p.o. vs MMP-13.
Procedure: A 2 cm piece of dialysis tubing (molecular weight cut-off 12-14,000, 10 mm flat width) containing matrix metalloproteinase enzyme (stromelysin, collagenase or gelatinase in 0.5 mL of buffer) is implanted either ip or sc (in the back) of a rat (Sprague-Dawley, 150-200 g) or mouse (CD-1, 25-50 g) under anesthesia. Drugs are administered PO, IP, SC or IV through a canula in the jugular vein. […] Contents of the dialysis tubing is collected and enzyme activity assayed.
Enzyme reaction rates for each dialysis tube are calculated. Tubes from at least 3 different animals are used to calculate the mean±sem. Statistical significance (p<0.05) of vehicle-treated animals versus drug-treated animals is determined by analysis of variance.
A further series addresses MMP-9 (Homo sapiens, UniProt P14780). The experiment in a line: MMP-9 inhibition (thiopeptide or fluorescent peptide substrate). The class given is biochemical. As to conditions: for IC50: read-out: MMP-9 IC50; for inhibition at 1 µM: read-out: MMP-9 % inhibition, at 1 μM concentration.
Series [3] addresses T2, MMP-13. Briefly: MMP-13 inhibition (thiopeptide or fluorescent peptide substrate). The class given is biochemical. As to conditions: for inhibition at 1 µM: read-out: MMP-13 % inhibition, at 1 μM concentration.
Procedure: (§1) The enzyme activity is measured by the rate of the color increase. The thiopeptide substrate is made up fresh as a 20 mM stock in 100% DMSO and the DTNB is dissolved in 100% DMSO as a 100 mM stock and stored in the dark at room temperature. Both the substrate and DTNB are diluted together to 1 mM with substrate buffer (50 mM HEPES pH 7.5, 5 mM CaCl2) before use. The stock of enzyme is diluted with buffer (50 mM HEPES, pH 7.5, 5 mM CaCl2, 0.02% Brij) to the desired final concentration.
(§2) Alternatively, a fluorescent peptide substrate is used. In this test procedure, the peptide substrate contains a fluorescent group and a quenching group. Upon cleavage of the substrate by an MMP, the fluorescence that is generated is quantitated on the fluorescence plate reader. The assay is run in HCBC assay buffer (50 mM HEPES, pH 7.0, 5 mM Ca^+2, 0.02% Brij, 0.5% Cysteine), with human recombinant MMP-1, MMP-9, or MMP-13. The substrate is dissolved in methanol and stored frozen in 1 mM aliquots. For the assay, substrate and enzymes are diluted in HCBC buffer to the desired concentrations. Compounds are added to the 96 well plate containing enzyme and the reaction is started by the addition of substrate.
(§3) For either the thiopeptide or fluorescent peptide test procedures, the slope of the line is calculated and represents the reaction rate. The linearity of the reaction rate is confirmed (r^2>0.85). The mean (x±sem) of the control rate is calculated and compared for statistical significance (p<0.05) with drug-treated rates using Dunnett's multiple comparison test.
In a further series the target is TACE (Homo sapiens, UniProt P78536). Briefly: TACE inhibition (fluorescent peptidyl substrate). The class given is biochemical. Conditions: for inhibition at 1 µM: at 1 μM concentration, read-out: TACE % inhibition.
Series [4] deals with T1, MMP-1. Briefly: biochemical. As to conditions: for IC50: MMP-1 IC50.

Where a name gives a salt, the structure may show the parent alone. Read-outs that look alike come from different tables or passages of the source.

The source of these data is patent publication US6534491B2, “Preparation and use of ortho-sulfonamido bicyclic heteroaryl hydroxamic acids as matrix metalloproteinase and tace inhibitors” (priority 1996, dated 2003).

Chain of TACE (P78536 215-824): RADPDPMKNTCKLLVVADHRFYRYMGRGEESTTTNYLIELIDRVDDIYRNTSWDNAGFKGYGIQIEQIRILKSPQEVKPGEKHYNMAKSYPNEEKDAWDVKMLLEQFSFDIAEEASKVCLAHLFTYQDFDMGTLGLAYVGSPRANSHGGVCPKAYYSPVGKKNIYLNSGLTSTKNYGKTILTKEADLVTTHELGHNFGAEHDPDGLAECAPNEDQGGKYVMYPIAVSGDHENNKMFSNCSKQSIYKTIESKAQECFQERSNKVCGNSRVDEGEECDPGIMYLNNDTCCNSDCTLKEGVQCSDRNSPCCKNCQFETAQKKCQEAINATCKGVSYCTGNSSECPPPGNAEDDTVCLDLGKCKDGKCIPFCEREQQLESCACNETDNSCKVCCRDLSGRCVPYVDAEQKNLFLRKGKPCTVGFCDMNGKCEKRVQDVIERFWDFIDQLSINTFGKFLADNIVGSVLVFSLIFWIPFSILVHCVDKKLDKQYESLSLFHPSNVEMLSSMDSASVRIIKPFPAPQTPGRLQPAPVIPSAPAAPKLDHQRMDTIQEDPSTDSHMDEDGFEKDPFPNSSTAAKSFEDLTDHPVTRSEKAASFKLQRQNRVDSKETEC
Chain of MMP-9 (P14780 94-707): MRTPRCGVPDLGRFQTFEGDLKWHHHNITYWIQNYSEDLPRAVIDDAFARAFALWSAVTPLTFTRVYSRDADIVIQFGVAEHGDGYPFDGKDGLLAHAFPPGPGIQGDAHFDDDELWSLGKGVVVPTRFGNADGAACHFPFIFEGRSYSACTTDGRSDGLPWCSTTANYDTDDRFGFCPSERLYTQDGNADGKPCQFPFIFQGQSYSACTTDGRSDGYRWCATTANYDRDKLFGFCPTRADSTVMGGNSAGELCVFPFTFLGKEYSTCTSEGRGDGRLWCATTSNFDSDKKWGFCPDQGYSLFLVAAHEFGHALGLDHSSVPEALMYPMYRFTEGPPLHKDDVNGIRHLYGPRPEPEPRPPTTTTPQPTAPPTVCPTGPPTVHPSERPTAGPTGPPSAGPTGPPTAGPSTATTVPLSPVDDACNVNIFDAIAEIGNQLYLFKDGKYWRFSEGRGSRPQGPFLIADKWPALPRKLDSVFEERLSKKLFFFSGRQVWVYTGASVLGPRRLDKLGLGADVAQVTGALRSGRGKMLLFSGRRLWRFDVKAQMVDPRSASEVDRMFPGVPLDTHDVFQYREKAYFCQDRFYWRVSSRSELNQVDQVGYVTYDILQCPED
Procedure for MMP-9: as §1, §2, §3
Procedure for TACE: Using 96-well black microtiter plates, each well receives a solution composed of 10 μL TACE (final concentration 1 μg/mL), 70 μL Tris buffer, pH 7.4 containing 10% glycerol (final concentration 10 mM), and 10 μL of test compound solution in DMSO (final concentration 1 μl M, DMSO concentration <1%) and incubated for 10 minutes at room temperature.
The reaction is read (excitation 340 nm, emission 420 nm) for 10 min. and the increase in fluorescence over time is plotted as a linear line. The slope of the line is calculated and represents the reaction rate.
The linearity of the reaction rate is confirmed (r^2>0.85). The mean (x±sem) of the control rate is calculated and compared for statistical significance (p<0.05) with drug-treated rates using Dunnett's multiple comparison test.

The term IC50 denotes the concentration at which inhibition is half-maximal. Regarding “4-[(4-Methoxy-benzenesulfonyl)-pyridin-3-ylmethyl-amino]-8-thiophen-2-yl-quinoline-3-carboxylic acid hydroxyamide [Example 41]”, the half-maximal inhibitory concentration (IC50) at MMP-1 [1] stood at 136 nM.
For the compound “4-{[4-(4-Chlorophenyloxy)benzenesulfonyl]methylamino}-3-methylisothiazolo[5,4-b]pyridine-5-carboxylic Acid Hydroxyamide [Example 90]”, the “in-vivo MMP % inhibition” value at MMP-13 [2] (dose 25 mg/kg) was 39% (25).
As a reminder, the melting point is the temperature of the solid-liquid transition. Take `Cc1nn(C)c2ncc(C(=O)NO)c(N(C)S(=O)(=O)c3ccc(Oc4ccncc4)cc3)c12` (as salt: hydrochloride) [91(HC1), 4-{Methyl-[4-(4-pyridinyloxy)benzenesulfonyl]amino}-1,3-dimethyl-1H-pyrazolo[3,4-b]pyridine-5-carboxylic Acid, Hydroxyamide]: the melting point was 147 °C (dec.).
As to `CN(c1c(C(=O)NO)cnc2c1c(-c1ccccc1)nn2C)S(=O)(=O)c1ccc(Oc2ccncc2)cc1` (as salt: hydrochloride) [Example 93, 4-{Methyl-[4-(4-pyridinyloxy)benzenesulfonyl]amino}-1-methyl-3-phenyl-1H-pyrazolo[3,4-b]pyridine-5-carboxylic acid, Hydroxyamide], the melting point was 195 °C (dec.).
As for `Cc1noc2ncc(C(=O)NO)c(N(C)S(=O)(=O)c3ccc(Oc4ccncc4)cc3)c12` (as salt: hydrochloride) [Example 94, 4-{Methyl-[4-(4-pyridinyloxy)benzenesulfonyl]amino}-3-methylisoxazolo[5,4-b]pyridine-5-carboxylic acid, Hydroxyamide,], the melting point was 170 °C (dec.).
The same measure, in the same setting: under `COc1ccc(S(=O)(=O)N(Cc2cccnc2)c2c(C(=O)NO)cnc3snc(C)c23)cc1` (as salt: salt) [Example 86, 4-[(4-Methoxybenzenesulfonyl)pyridin-3-ylmethylamino]-3-methylisothiazolo[5,4-b]pyridine-5-carboxylic Acid, Hydroxyamide] stands 224 °C (dec.).
On the same count and under the same terms, under `COc1ccc(S(=O)(=O)N(Cc2cccnc2)c2c(C(=O)NO)cnc3onc(C)c23)cc1` (as salt: salt) [Example 87, 4-[(4-Methoxybenzenesulfonyl)pyridin-3-ylmethylamino]-3-methylisoxazolo[5,4-b]pyridine-5-carboxylic Acid, Hydroxyamide] stands 212 to 215 °C; under `COc1ccc(S(=O)(=O)N(Cc2cccnc2)c2c(C(=O)NO)cnc3cc(C)nn23)cc1` (as salt: salt) [Example 88, 7-[(4-Methoxybenzenesulfonyl)pyridin-3-ylmethylamino]-2-methylpyrazolo[1,5-a]pyrimidine-6-carboxylic Acid, Hydroxyamide], 170 °C (dec.).
As a reminder, the inhibition is the drop in the measured response relative to a control, in per cent. For `COc1ccc(S(=O)(=O)N(Cc2cccnc2)c2c(C(=O)NO)cnc3cc(C(F)(F)F)ccc23)cc1` [Example 16, 4-[(4-Methoxybenzenesulfonyl)-pyridin-3-ylmethylamino]-7-trifluoromethyl-quinoline-3-carboxylic acid hydroxyamide], the figures for the IC50 at MMP-9 and against MMP-13 [3] were 6 nM and 3 nM, respectively. The “in-vivo MMP % inhibition” value at MMP-13 [2] (dose 100 mg/kg) was 64% (100). At TACE, the inhibition at 1 µM was 36%.
Regarding `COc1ccc(S(=O)(=O)N(Cc2cccnc2)c2c(C(=O)NO)cnc3c(OC)cccc23)cc1` [Example 36, 4-[(4-Methoxy-benzenesulfonyl)-pyridin-3-ylmethyl-amino]-8-methoxy-quinoline-3-carboxylic acid hydroxyamide], the IC50 on MMP-9 is 2 nM; on MMP-13 [3] it was 1 nM; against TACE, 226 nM. Besides, the “in-vivo MMP % inhibition” value at MMP-13 [2] (dose 50 mg/kg) is on record as 81% (50).
With `CCCCCCCCS(=O)(=O)N(Cc1cccnc1)c1c(C(=O)NO)cnc2cc(C(F)(F)F)ccc12` [Example 43, 4-[(Octane-1-sulfonyl)-pyridin-3-ylmethyl-amino]-7-trifluoromethyl-quinoline-3-carboxylic acid hydroxyamide], the inhibition at 1 µM on MMP-1 [4] (read-out: MMP-1 % inhibition) is 43%; at MMP-9, 71%; at MMP-13 [3], 63%; on TACE it was 20%.
The matching figures for `Cc1ccc(S(=O)(=O)N(Cc2cccnc2)c2c(C(=O)NO)cnc3cc(C(F)(F)F)ccc23)cc1` [Example 44, 4-[Pyridin-3-ylmethyl-(toluene-4-sulfonyl)-amino]-7-trifluoromethyl-quinoline-3-carboxylic acid hydroxyamide]: 65%, 59%, 73% and 5%.
Consider `COc1ccc(S(=O)(=O)N(Cc2ccccc2)c2c(C(=O)NO)cnc3c2c(C)nn3C)cc1` [Example 52, 4-[Benzyl-(4-methoxybenzenesulfonyl)amino]-1,3-dimethyl-1H-pyrazolo[3,4-b]pyridine-5-carboxylic acid, hydroxyamide], for which the half-maximal inhibitory concentration (IC50) on MMP-1 [4] was 45 nM; on MMP-9, 2.4 nM; on MMP-13 [3] it was 1.4 nM; at TACE, 236 nM. Besides, the “in-vivo MMP % inhibition” value at MMP-13 [2] (dose 100 mg/kg) is given as 74% (100).
In turn, `COc1ccc(S(=O)(=O)N(Cc2cccnc2)c2c(C(=O)NO)cnc3c2c(C)nn3C)cc1` [Example 60, 4-[(4-Methoxybenzenesulfonyl)pyridin-3-ylmethylamino]-1,3-dimethyl-1H-pyrazolo[3,4-b]pyridine-5-carboxylic acid, hydroxyamide] yielded a melting point of 196 to 198 °C.
For the compound `COc1ccc(S(=O)(=O)N(Cc2ccccc2)c2c(C(=O)NO)cnc3c2cnn3-c2ccccc2)cc1` [Example 62, 4-[Benzyl-(4-methoxybenzenesulfonyl)amino]-1-phenyl-1H-pyrazolo[3,4-b]pyridine-5-carboxylic acid, hydroxyamide], the IC50 against MMP-1 [4] is 1240 nM; at MMP-9, 5.7 nM; on MMP-13 [3], 23 nM. In addition, the inhibition at 1 µM at TACE was determined as 46%.
As for `COc1ccc(S(=O)(=O)N(Cc2ccccc2)c2c(C(=O)NO)cnc3c2c(C)nn3-c2ccccc2)cc1` [Example 66, 4-[Benzyl-(4-methoxybenzenesulfonyl)amino]-1-phenyl-3-methyl-1H-pyrazolo[3,4b]pyridine-5-carboxylic acid, hydroxyamide], the IC50 at MMP-1 [4] was 512 nM; at MMP-9, 0.81 nM; on MMP-13 [3] it was 0.27 nM. Also, the “in-vivo MMP % inhibition” value on MMP-13 [2] (dose 25 mg/kg) is given as 5% (25).
Turning to `COc1ccc(S(=O)(=O)N(Cc2cccnc2)c2c(C(=O)NO)cnc3onc(C)c23)cc1` [Example 87, 4-[(4-Methoxybenzenesulfonyl)pyridin-3-ylmethylamino]-3-methylisoxazolo[5,4-b]pyridine-5-carboxylic Acid, Hydroxyamide], the IC50 at MMP-1 [4] amounted to 111 nM; at MMP-9 it was 8.9 nM; at MMP-13 [3], 10 nM; on TACE, 147 ± 5 nM.
Take `COc1ccc(S(=O)(=O)N(Cc2cccnc2)c2c(C(=O)NO)cnc3cc(C)nn23)cc1` [Example 88, 7-[(4-Methoxybenzenesulfonyl)pyridin-3-ylmethylamino]-2-methylpyrazolo[1,5-a]pyrimidine-6-carboxylic Acid, Hydroxyamide]: the 50% inhibitory concentration (IC50) against MMP-1 [4] was determined as 643 nM; at MMP-9 it was 10.4 nM; against MMP-13 [3], 18.7 nM. For the same compound, the inhibition at 1 µM at TACE came to 40.5%.
With `Cc1nsc2ncc(C(=O)NO)c(N(C)S(=O)(=O)c3ccc(Oc4ccncc4)cc3)c12` [Example 92, 4-{Methyl-[4-(4-pyridinyloxy)benzenesulfonyl]amino}-3-methylisothiazolo[5,4-b]pyridine-5-carboxylic Acid, Hydroxyamide], the melting point is 146 °C (dec.). For the same compound, the inhibition at 10 µM at MMP-1 [4] (read-out: MMP-1 % inhibition) is 60.2%. The half-maximal inhibitory concentration (IC50) at MMP-9 stood at 12 nM. Also, at MMP-13 [2] (dose 25 mg/kg), the “in-vivo MMP % inhibition” value is recorded as 30% (25). At MMP-13 [3], this compound showed an IC50 of 6.1 nM. The concentration for half-maximal inhibition (IC50) against TACE was more than 1640 nM.
As to `CN(c1c(C(=O)NO)cnc2c1c(-c1ccccc1)nn2C)S(=O)(=O)c1ccc(Oc2ccncc2)cc1` [Example 93, 4-{Methyl-[4-(4-pyridinyloxy)benzenesulfonyl]amino}-1-methyl-3-phenyl-1H-pyrazolo[3,4-b]pyridine-5-carboxylic acid, Hydroxyamide], the IC50 against MMP-1 [4] turned out to be 8790 nM; at MMP-9 it was 10.1 nM; against MMP-13 [3] it was 3.9 nM. In addition, the “in-vivo MMP % inhibition” value on MMP-13 [2] (dose 25 mg/kg) is on record as 49% (25). Besides, the inhibition at 1 µM at TACE was determined as 34.9%.
The matching figures for `Cc1noc2ncc(C(=O)NO)c(N(C)S(=O)(=O)c3ccc(Oc4ccncc4)cc3)c12` [Example 94, 4-{Methyl-[4-(4-pyridinyloxy)benzenesulfonyl]amino}-3-methylisoxazolo[5,4-b]pyridine-5-carboxylic acid, Hydroxyamide,]: 2550 nM, 3 nM, 3.2 nM, 12% (25) and 41.6%.
